Measurements reported in US4000293A, “Method of inhibiting bacterial growth with certain selected 3-chloro-2-oxazolidinones” (Interx Research Corporation, priority 1975, dated 1976).
Read-outs that look alike come from different tables or passages of the source.

Key:
[1] = positive chlorine concentration before and after 14 day incubation of solutions at pH 7.0, 40° C., Table B; assay type: physicochemical; details: for Final Concn. of positive chlorine: after 14 day incubation at 40° C.; for Final Concn. of positive chlorine / Initial Concn. of positive chlorine: 0.1M phosphate pH 7.0; for Initial Concn. of positive chlorine: before incubation; for decomposition over the test period (in words): 14 days, 40° C., pH 7.0
Protocol: (§1) The germicidal kill times so-obtained at various concentrations of the compounds of the invention and of certain reference compounds are given in Table A below. The compounds are identified in each case by the Example number above where the compounds are described. Here and elsewhere in the specification that follows, concentrations are expressed in parts per million (ppm) of "positive" chlorine, which was determined in each instance by addition of excess aqueous potassium iodide to an acidified solution of the test compound and titration of the iodine liberated with standard sodium thiosulfate solution.
(§2) The stabilities and the time-dependent efficacies of the claimed and reference species were determined by comparing the contact germicidal times and the initial and final concentrations of positive chlorine in solutions of the test species in 0.1M sodium dihydrogen phosphate buffered to pH 7.0 before and after 14 day incubation of the solutions at 40° C. The results are given in Table B below, where the columns headed "Bc Time" refers to the bactericidal time in minutes.

[2] = tested on: Staphylococcus aureus ATCC 6538; experiment: germicidal efficiency test (modified serial dilution; time to complete sterilization), Table A; assay type: cell-based; details: pH 7.0
Protocol: The compounds are thus useful as bactericidal agents.
(§3) The compounds of the invention and certain reference compounds were tested in the germidical efficiency test, a modification of the standard serial dilution test, against Staphylococcus aureus ATCC 6538. In the germicidal efficiency test, instead of determining the minimum inhibitory concentration as in the serial dilution test procedure, the time required to effect complete sterilization of the micro-organism when exposed to a given concentration of the test substance is determined. This procedure affords a basis of comparison of the time dependent efficacies of the various test substances which gives a measure not only of the germidical efficacy of the test species but, since as will be seen germicidal efficiency of the N-chloro compounds generally tends to diminish with time, apparently owing to decomposition of, and therefore dilution of, the active species, the test procedure also provides an indication of the efficacy to be expected at varying time intervals after solution of the test species in the application medium. The test procedure is described as follows: A stock solution of known concentration of each compound to be tested was prepared in 0.1M sodium dihydrogen phosphate buffered to pH 7.0. To 5 ml. of the test solution was added 0.2 ml. of an overnight broth culture containing from 6×10^6 to 8×10^6 organisms/ml. of Staphylococcus aureus ATCC 6538 and 5 g. of gelysate peptone and 3 g. of beef extract per 1000 ml. of water. At time intervals of 0.5, 1, 2, 3, 4, 5, 6, 7, 8, 9, 10, 15 and 30 minutes, a loop of this suspension was subcultured into 5 ml. of sterile nutrient broth (5 g. of gelysate peptone and 3 g. of beef extract/1000 ml. of water), and the samples were incubated at 37° C. for 7 days with daily observation for evidence of bacterial growth. The time interval in which no bacterial growth was observed after the incubation period in a particular sample was recorded as the end point.
as §1

[3] = tested on: Staphylococcus aureus ATCC 6538; experiment: contact germicidal (bactericidal) time before and after 14 day incubation of solutions at 40° C., Table B; assay type: cell-based; details: pH 7.0; for Bc Time, final: after 14 day incubation at 40° C.; for Bc Time, initial: before incubation, at initial ppm +Cl of the same line; for bactericidal activity after the test period (in words): after 14 days at 40° C.
Protocol: as §3, §2

[4] = stability in the neat state (% chlorine by iodometric titration), Table D; assay type: physicochemical
Protocol: In those instances, the data were acquired at ambient temperature (approximately 23° C.). The method used was similar to that described above in which the rate of disappearance of "positive" chlorine was followed iodometrically by titration of iodine liberated from added potassium iodide with standard sodium thiosulfate solution. Samples of the compounds were individually sealed in ampoules and stored in the dark at 23° C. or 40° C. and weighed amounts removed from time to time for analysis.
For each of the compounds analyzed as indicated above, percent chlorine was plotted as ordinate against time in days as abscissa on semi-logarithmic paper and the points connected by a smooth curve for each compound.

[5] = hydrolytic stability in 0.1M sodium dihydrogen phosphate pH 7.0 at 40° (first-order kinetics), Table C; assay type: physicochemical; details: for half-life: 0.1m phosphate buffer; for half-life / Rate Constant k: hydrolysis, 0.1M phosphate pH 7.0, 40°; for Rate Constant k: first-order
Protocol: A further measure of the relative stabilities of the reference and claimed species was obtained by measuring the hydrolytic stability of the various species in 0.1M sodium dihydrogen phosphate buffered to pH 7.0 at 40°. For each species, the rate of change in the concentration of positive chlorine in the solution was measured by the volume of standard thiosulfate required to titrate a series of aliquots of a standard volume of the solution at various time intervals using potassium iodide/sodium thiosulfate as detailed above. The volumes of thiosulfate required to titrate each sample so obtained were interpreted as first-order kinetic processes. The hydrolytic stabilities of the reference and claimed species under the experimental conditions were characterized by the reaction rate constants and half-lives obtained from a linear regression analysis of the experimental data. The results obtained are given in Table C below and are also shown in FIG. 1 where the volumes in milliliters of standard thiosulfate required to titrate the positive chlorine in the various samples are plotted as ordinate against time in days as abscissa.

O=C1OCCN1Cl [Example 1A, 3-chloro-2-oxazolidinone]
Final Concn. of positive chlorine [1]: 30 ppm +Cl | Initial Concn. of positive chlorine [1]: 465 ppm +Cl | Bactericidal Time ([2]; 157 ppm +Cl): 7 min | Bactericidal Time ([2]; 281 ppm +Cl): 2 min | Bactericidal Time ([2]; 465 ppm +Cl): 1 min | Bc Time, final [3]: > 30 min | Bc Time, initial [3]: 1 min | % Cl, neat ([4]; 40° C., 0 Hrs.): 28.9% | % Cl, neat ([4]; 40° C., 2 Hrs.): 27.4% | % Cl, neat ([4]; 40° C., 18.5 Hrs.): 25.9% | % Cl, neat ([4]; 40° C., 24 Hrs.): 26.9% | % Cl, neat ([4]; 40° C., 54 Hrs.): 27.2% | % Cl, neat ([4]; 40° C., 72 Hrs.): 24.8% | % Cl, neat ([4]; 40° C., 80 Hrs.): 23.5% | % Cl, neat ([4]; 40° C., 98 Hrs.): 26.2% | % Cl, neat ([4]; 40° C., 144 Hrs.): 8.7% | % Cl, neat ([4]; 40° C., 168 Hrs.): 0.4% | half-life [5]: 45 h | Rate Constant k [5]: 0.0155 h⁻¹

CC1COC(=O)N1Cl (stereo not shown) [Example 1B, 3-Chloro-4-methyl-2-oxazolidinone]
Final Concn. of positive chlorine [1]: 14 ppm +Cl | Initial Concn. of positive chlorine [1]: 610 ppm +Cl | Bactericidal Time ([2]; 131 ppm +Cl): 7 min | Bactericidal Time ([2]; 303 ppm +Cl): 4 min | Bactericidal Time ([2]; 610 ppm +Cl): 1 min | Bc Time, final [3]: > 30 min | Bc Time, initial [3]: 1 min | % Cl, neat ([4]; 23° C., 0 Hrs.): 26.5% | % Cl, neat ([4]; 23° C., 3 Hrs.): 25.9% | % Cl, neat ([4]; 23° C., 5 Hrs.): 25.3% | % Cl, neat ([4]; 23° C., 6.5 Hrs.): 25.0% | % Cl, neat ([4]; 23° C., 9 Hrs.): 25.0% | % Cl, neat ([4]; 23° C., 10.5 Hrs.): 24.1% | % Cl, neat ([4]; 23° C., 21.5 Hrs.): 21.7% | % Cl, neat ([4]; 23° C., 24.5 Hrs.): 21.1% | % Cl, neat ([4]; 23° C., 29 Hrs.): 14.4% | % Cl, neat ([4]; 23° C., 30 Hrs.): 12.4% | % Cl, neat ([4]; 23° C., 32 Hrs.): 6.1% | % Cl, neat ([4]; 23° C., 35 Hrs.): 2.0% | % Cl, neat ([4]; 23° C., 45 Hrs.): 0% | half-life [5]: 10.9 h | Rate Constant k [5]: 0.0633 h⁻¹

CC1OC(=O)N(Cl)C1C (stereo not shown) [Example 1C, 3-Chloro-4,5-dimethyl-2-oxazolidinone]
Final Concn. of positive chlorine [1]: 51 ppm +Cl | Initial Concn. of positive chlorine [1]: 490 ppm +Cl | Bactericidal Time ([2]; 117 ppm +Cl): 10 min | Bactericidal Time ([2]; 295 ppm +Cl): 5 min | Bactericidal Time ([2]; 490 ppm +Cl): 4 min | Bc Time, initial [3]: 4 min | % Cl, neat ([4]; 23° C., 0 Hrs.): 21.8% | % Cl, neat ([4]; 23° C., 3 Hrs.): 20.8% | % Cl, neat ([4]; 23° C., 5 Hrs.): 8.2% | % Cl, neat ([4]; 23° C., 7.5 Hrs.): 0.47% | % Cl, neat ([4]; 23° C., 24 Hrs.): 0.17% | half-life [5]: 38.5 h | Rate Constant k [5]: 0.018 h⁻¹

CC1CN(Cl)C(=O)O1 (stereo not shown) [Example 1D, 3-Chloro-5-methyl-2-oxazolidinone]
Final Concn. of positive chlorine [1]: 34 ppm +Cl | Initial Concn. of positive chlorine [1]: 548 ppm +Cl | Bactericidal Time ([2]; 74 ppm +Cl): > 30 min | Bactericidal Time ([2]; 383 ppm +Cl): 2 min | Bactericidal Time ([2]; 548 ppm +Cl): 0.5 min | Bc Time, final [3]: > 30 min | Bc Time, initial [3]: 0.5 min

CCC1CN(Cl)C(=O)O1 (stereo not shown) [Example 1E, 3-Chloro-5-ethyl-2-oxazolidinone]
Final Concn. of positive chlorine [1]: 15 ppm +Cl | Initial Concn. of positive chlorine [1]: 535 ppm +Cl | Bactericidal Time ([2]; 96 ppm +Cl): 6 min | Bactericidal Time ([2]; 161 ppm +Cl): 2 min | Bactericidal Time ([2]; 372 ppm +Cl): 3 min | Bactericidal Time ([2]; 535 ppm +Cl): 1 min | Bc Time, final [3]: > 30 min | Bc Time, initial [3]: 1 min

CC1(C)COC(=O)N1Cl [Example 1F, 3-Chloro-4,4-dimethyl-2-oxazolidinone]
decomposition over the test period (in words) [1]: decomposed only slightly over the test period | Final Concn. of positive chlorine [1]: 527 ppm +Cl | Initial Concn. of positive chlorine [1]: 534 ppm +Cl | Bactericidal Time ([2]; 148 ppm +Cl): 5 min | Bactericidal Time ([2]; 195 ppm +Cl): 5 min | Bactericidal Time ([2]; 368 ppm +Cl): 3 min | Bactericidal Time ([2]; 508 ppm +Cl): 2 min | Bc Time, final [3]: 2 min | bactericidal activity after the test period (in words) [3]: retained the original level of bactericidal activity | Bc Time, initial [3]: 2 min | % Cl, neat ([4]; 40° C., 0 Days): 23.4% | % Cl, neat ([4]; 40° C., 1 Day): 23.0% | % Cl, neat ([4]; 40° C., 2 Days): 23.8% | % Cl, neat ([4]; 40° C., 7 Days): 23.5% | % Cl, neat ([4]; 40° C., 35 Days): 24.2% | % Cl, neat ([4]; 40° C., 49 Days): 23.3% | stability in the neat state (in words) ([4]; neat, 40° C.): surprising stability | half-life [5]: 2040 h | Rate Constant k [5]: 0.00034 h⁻¹ | hydrolytic stability (in words) ([5]; pH 7.0, 40°): unusual stability

CCC1(C)COC(=O)N1Cl (stereo not shown) [Example 1H, 3-Chloro-4-ethyl-4-methyl-2-oxazolidinone]
decomposition over the test period (in words) [1]: decomposed only slightly over the test period | Final Concn. of positive chlorine [1]: 553 ppm +Cl | Initial Concn. of positive chlorine [1]: 555 ppm +Cl | Bc Time, final [3]: 3 min | bactericidal activity after the test period (in words) [3]: retained the original level of bactericidal activity | Bc Time, initial [3]: 3 min | stability in the neat state (in words) [4]: surprising stability | % Cl, neat ([4]; 40° C., 0 Days): 21.7% | % Cl, neat ([4]; 40° C., 2 Days): 23.6% | % Cl, neat ([4]; 40° C., 5 Days): 21.1% | % Cl, neat ([4]; 40° C., 10 Days): 20.7% | % Cl, neat ([4]; 40° C., 14 Days): 21.0% | % Cl, neat ([4]; 40° C., 18 Days): 20.6% | % Cl, neat ([4]; 40° C., 25 Days): 18.2% | % Cl, neat ([4]; 40° C., 39 Days): 22.3% | % Cl, neat ([4]; 40° C., 53 Days): 20.2% | % Cl, neat ([4]; 40° C., 164 Days): 19.6%
